{"source": "paper PMC11651915", "about": "“Small molecule protein assembly modulators with pan-cancer therapeutic efficacy” (Open Biology, 2024)", "key": {"Hennes 20 cells [1]": {"system": "Hennes 20 cells", "assay": "High density/low density 'arrest of proliferation' assay", "assay_type": "cell-based, Chinese hamster", "conditions": "Hennes 20, 72 h, AlamarBlue"}, "Hs 294T": {"system": "Hs 294T", "assay": "Eurofins OncoPanel (CellTiter-Glo)", "assay_type": "cell-based", "conditions": "Homo sapiens, 72 h, 3 days"}, "UACC-257": {"system": "UACC-257", "assay": "cells", "conditions": "Homo sapiens, UACC-257, 48 h"}, "Hennes 20 cells [2]": {"system": "Hennes 20 cells", "assay": "Cell growth recovery assay", "assay_type": "cell-based, Chinese hamster", "conditions": "PAV-617 0.3 µM 24 h, PAV-951 0.4 µM 6 h, followed to day 14", "method": "To confirm that the inhibition observed in low-density Hennes 20 cells resulted from temporary arrest of proliferation and not cell death, compound was removed after a period of treatment and cell growth was measured over the subsequent two weeks for recovery potential. Once compound was removed, following a period of recovery, cell proliferation was restored over time for both chemotypes (see figure 1f,g). By day 11, cell density in compound-treated cells had caught up to that in the DMSO-treated cells (see figure 1f,g).\nA 96-well plate was seeded with either Hennes 20 or LNCaP C-33 cells at 500 cells per well in 90 µl of minimum essential media and incubated at 37°C for 24 h. 0.5% DMSO was diluted in media and added to six control wells for each plate. PAV-617 was diluted in media and added to three wells at a concentration of 0.3 µM. PAV-951 was diluted in media and added to concentration of 0.4 µM. After 24 h of PAV-617 treatment or 6 h of PAV-951 treatment, the medium containing compound was removed and replaced with fresh media. After 72 h (day 5), plates were assayed with AlamarBlue and fluorescence was read at 530/590. The medium containing AlamarBlue was removed and replaced with fresh media. After another 72 h (day 8) plates were assayed with AlamarBlue and fluorescence again, then medium containing AlamarBlue was removed and replaced with fresh media. […]"}, "LOX IMVI": {"system": "LOX IMVI", "assay": "cells", "conditions": "Homo sapiens, 48 h"}, "IGROV1": {"system": "IGROV1", "assay": "cells", "assay_type": "cell-based", "conditions": "Homo sapiens, IGROV-1, NCI-60, 48 h"}, "MHH-PREB-1": {"system": "MHH-PREB-1", "assay": "Eurofins OncoPanel (CellTiter-Glo)", "conditions": "Homo sapiens, MHH-PREB-1, 72 h"}, "T-47D": {"system": "T-47D", "assay": "cells", "assay_type": "cell-based", "conditions": "Homo sapiens, T47D, NCI-60, 48 h"}, "NCI-H23": {"system": "NCI-H23", "assay": "cells", "conditions": "Homo sapiens, NCI-H23, 48 h"}, "PC-3": {"system": "PC-3", "assay": "cells", "assay_type": "cell-based", "conditions": "Homo sapiens, NCI-60, 48 h"}, "SJSA1-OSA": {"system": "SJSA1-OSA", "assay": "Eurofins OncoPanel (CellTiter-Glo)", "assay_type": "cell-based", "conditions": "Homo sapiens, 72 h, 3 days"}}, "data": [{"smiles": "CC(C)CCNc1ncnc2cc(N3CCN(c4ccc5c(NCCC(C)C)ncnc5c4)CC3)ccc12", "note": "[PAV-951]", "values": [{"measurement": "inhibitory effect at low (500 cells per well) versus high (15 000 cells per well) density", "setting": "Hennes 20 cells [1]", "value": "difference between their inhibitory effects on low and high density-plated Hennes 20 cells"}, {"measurement": "IC50", "setting": "Hs 294T", "value": 1100, "unit": "nM"}, {"measurement": "GI50", "setting": "UACC-257", "value": 1710, "unit": "nM"}, {"measurement": "CC50", "setting": "UACC-257; read-out: LC50", "value": 5980, "unit": "nM"}, {"measurement": "recovery of cell growth after removal of compound", "setting": "Hennes 20 cells [2]", "value": "recovered over time"}, {"measurement": "GI50", "setting": "LOX IMVI", "value": 183, "unit": "nM"}, {"measurement": "CC50", "setting": "LOX IMVI; read-out: LC50", "value": 684, "unit": "nM"}, {"measurement": "GI50", "setting": "IGROV1", "value": 287, "unit": "nM"}, {"measurement": "IC50", "setting": "MHH-PREB-1", "value": 400, "unit": "nM"}, {"measurement": "GI50", "setting": "T-47D", "value": 952, "unit": "nM"}, {"measurement": "GI50", "setting": "NCI-H23", "value": 1470, "unit": "nM"}, {"measurement": "CC50", "setting": "NCI-H23; read-out: LC50", "value": 5620, "unit": "nM"}, {"measurement": "GI50", "setting": "PC-3", "value": 399, "unit": "nM"}, {"measurement": "IC50", "setting": "SJSA1-OSA", "value": 724, "unit": "nM"}]}]}
